From ChEMBL document CHEMBL1201862, “PubChem BioAssay data set” (2004)
Active and inactive are the calls of the source.

How the values were obtained:
[1] = biological target: Beta-galactosidase (Escherichia coli, UniProt Q8VNN2); assay: PubChem AID 485352; type: functional
[2] = biological target: T1, Type-1 angiotensin II receptor (Homo sapiens, UniProt P30556); assay: AT1 receptor antagonists, dose response, selectivity assay for APJ receptor antagonist project, cell-based, uHTS hits (AID 463214); type: functional;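 also: antagonist potency against angiotensin II stimulated AT1 response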
T1 sequence (P30556 whole entry): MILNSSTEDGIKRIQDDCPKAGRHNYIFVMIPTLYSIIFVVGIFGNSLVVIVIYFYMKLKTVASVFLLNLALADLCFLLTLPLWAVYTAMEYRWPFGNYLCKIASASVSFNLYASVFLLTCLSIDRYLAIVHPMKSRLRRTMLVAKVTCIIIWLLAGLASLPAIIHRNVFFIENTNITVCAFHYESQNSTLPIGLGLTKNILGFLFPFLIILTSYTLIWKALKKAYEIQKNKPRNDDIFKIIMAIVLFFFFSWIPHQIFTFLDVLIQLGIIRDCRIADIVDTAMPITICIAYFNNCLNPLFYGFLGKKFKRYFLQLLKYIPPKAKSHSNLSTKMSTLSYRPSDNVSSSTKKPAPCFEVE

[3] = biological target: T2, Leucine aminopeptidase (Plasmodium falciparum 3D7, UniProt Q8IL11); assay: P. falciparum M17LAP inhibitors, primary screen, biochemical, fluorogenic H-Leu-NHMec substrate, 1536-well (AID 1619); type: functional
T2 sequence (Q8IL11 whole entry): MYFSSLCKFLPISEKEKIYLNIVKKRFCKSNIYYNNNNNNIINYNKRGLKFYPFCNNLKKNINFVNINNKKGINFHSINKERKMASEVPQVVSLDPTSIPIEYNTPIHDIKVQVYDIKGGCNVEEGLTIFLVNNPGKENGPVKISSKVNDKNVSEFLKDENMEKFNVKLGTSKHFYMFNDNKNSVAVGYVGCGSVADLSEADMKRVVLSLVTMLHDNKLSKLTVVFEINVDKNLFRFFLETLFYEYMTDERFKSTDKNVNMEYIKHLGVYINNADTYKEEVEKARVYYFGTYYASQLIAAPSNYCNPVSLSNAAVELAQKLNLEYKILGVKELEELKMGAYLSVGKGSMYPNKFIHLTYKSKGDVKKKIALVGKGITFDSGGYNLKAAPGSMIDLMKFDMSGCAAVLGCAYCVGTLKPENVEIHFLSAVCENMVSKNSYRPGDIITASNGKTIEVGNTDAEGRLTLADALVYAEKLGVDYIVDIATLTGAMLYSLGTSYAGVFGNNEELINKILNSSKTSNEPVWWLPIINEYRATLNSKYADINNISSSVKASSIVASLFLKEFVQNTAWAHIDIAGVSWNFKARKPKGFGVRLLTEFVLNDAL

[4] = biological target: T3, Aminopeptidase N (Plasmodium falciparum FcB1/Columbia, UniProt O96935); assay: P. falciparum M1AAP inhibitors, biochemical, fluorogenic H-Leu-NHMec substrate, 1536-well (AID 1445); set-up: species or system Plasmodium falciparum 3D7, 3D7
T3 sequence (O96935 whole entry): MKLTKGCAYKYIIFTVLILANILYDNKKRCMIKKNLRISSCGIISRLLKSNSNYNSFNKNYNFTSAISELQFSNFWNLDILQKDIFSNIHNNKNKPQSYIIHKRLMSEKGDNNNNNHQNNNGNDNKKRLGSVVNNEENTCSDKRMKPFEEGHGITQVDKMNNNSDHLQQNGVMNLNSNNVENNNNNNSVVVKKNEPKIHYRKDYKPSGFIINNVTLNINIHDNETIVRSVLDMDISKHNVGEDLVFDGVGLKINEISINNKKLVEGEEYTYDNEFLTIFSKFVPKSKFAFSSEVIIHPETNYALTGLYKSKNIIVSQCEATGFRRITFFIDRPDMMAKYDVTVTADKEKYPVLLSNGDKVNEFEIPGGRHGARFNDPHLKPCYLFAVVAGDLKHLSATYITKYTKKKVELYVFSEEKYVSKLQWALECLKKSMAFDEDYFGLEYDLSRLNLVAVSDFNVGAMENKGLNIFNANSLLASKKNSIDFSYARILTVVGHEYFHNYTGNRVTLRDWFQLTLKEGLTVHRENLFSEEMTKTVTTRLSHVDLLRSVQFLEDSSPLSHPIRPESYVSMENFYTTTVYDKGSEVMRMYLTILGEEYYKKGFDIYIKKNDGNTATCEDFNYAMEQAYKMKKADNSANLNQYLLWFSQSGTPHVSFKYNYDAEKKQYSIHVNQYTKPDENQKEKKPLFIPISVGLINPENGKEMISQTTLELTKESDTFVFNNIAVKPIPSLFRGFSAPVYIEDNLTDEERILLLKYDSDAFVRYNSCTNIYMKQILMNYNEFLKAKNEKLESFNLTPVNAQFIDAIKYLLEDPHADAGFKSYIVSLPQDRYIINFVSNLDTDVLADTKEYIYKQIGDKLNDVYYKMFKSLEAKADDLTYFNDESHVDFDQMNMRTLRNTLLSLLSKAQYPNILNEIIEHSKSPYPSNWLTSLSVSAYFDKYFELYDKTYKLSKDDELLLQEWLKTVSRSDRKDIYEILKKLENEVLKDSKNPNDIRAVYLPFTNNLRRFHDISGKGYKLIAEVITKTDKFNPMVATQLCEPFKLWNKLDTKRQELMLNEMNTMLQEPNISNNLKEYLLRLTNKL

[5] = test system: Escherichia coli; assay: microbe, parasite or virus in culture
[6] = biological target: T4, Alkaline phosphatase, tissue-nonspecific isozyme (Homo sapiens, UniProt P05186); assay: human TNAP enzyme inhibitors, SAR follow-up, biochemical, luminescent, dose response (AID 1056)
T4 sequence (P05186 whole entry): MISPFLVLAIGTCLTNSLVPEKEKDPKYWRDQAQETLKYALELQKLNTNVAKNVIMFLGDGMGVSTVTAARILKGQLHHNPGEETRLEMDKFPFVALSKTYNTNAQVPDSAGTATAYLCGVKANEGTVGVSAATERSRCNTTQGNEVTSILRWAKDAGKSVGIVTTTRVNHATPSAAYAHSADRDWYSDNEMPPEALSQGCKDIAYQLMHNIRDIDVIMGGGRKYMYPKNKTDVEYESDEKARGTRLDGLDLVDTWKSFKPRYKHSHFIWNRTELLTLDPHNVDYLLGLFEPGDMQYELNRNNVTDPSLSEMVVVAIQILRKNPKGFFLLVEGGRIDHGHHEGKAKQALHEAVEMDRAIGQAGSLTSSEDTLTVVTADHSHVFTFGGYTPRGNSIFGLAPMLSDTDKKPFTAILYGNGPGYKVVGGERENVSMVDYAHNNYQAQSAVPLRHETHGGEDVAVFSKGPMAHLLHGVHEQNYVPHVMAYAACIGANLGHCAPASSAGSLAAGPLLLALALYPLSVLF

[7] = cytotoxicity in HEK-293T cells, dose response, cytotoxicity control for BCR NF-kB inhibitor project, luminescence, B-cell screen hits (AID 489021); type: functional, cell-based;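 also: HEK-293T cells carrying an NF-kB luciferase reporter; cells exposed to compound for about 14 hours before viability readout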
[8] = biological target: T5, Short transient receptor potential channel 4 (Mus musculus, UniProt Q9QUQ5); assay: mouse TRPC4 channel inhibitors, dose response, cell-based, HEK293 TRPC4/mu-opioid, Fluo-4 calcium (AID 434942); type: functional;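 also: potency of inhibitors blocking the TRPC4 calcium response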
T5 sequence (Q9QUQ5 whole entry): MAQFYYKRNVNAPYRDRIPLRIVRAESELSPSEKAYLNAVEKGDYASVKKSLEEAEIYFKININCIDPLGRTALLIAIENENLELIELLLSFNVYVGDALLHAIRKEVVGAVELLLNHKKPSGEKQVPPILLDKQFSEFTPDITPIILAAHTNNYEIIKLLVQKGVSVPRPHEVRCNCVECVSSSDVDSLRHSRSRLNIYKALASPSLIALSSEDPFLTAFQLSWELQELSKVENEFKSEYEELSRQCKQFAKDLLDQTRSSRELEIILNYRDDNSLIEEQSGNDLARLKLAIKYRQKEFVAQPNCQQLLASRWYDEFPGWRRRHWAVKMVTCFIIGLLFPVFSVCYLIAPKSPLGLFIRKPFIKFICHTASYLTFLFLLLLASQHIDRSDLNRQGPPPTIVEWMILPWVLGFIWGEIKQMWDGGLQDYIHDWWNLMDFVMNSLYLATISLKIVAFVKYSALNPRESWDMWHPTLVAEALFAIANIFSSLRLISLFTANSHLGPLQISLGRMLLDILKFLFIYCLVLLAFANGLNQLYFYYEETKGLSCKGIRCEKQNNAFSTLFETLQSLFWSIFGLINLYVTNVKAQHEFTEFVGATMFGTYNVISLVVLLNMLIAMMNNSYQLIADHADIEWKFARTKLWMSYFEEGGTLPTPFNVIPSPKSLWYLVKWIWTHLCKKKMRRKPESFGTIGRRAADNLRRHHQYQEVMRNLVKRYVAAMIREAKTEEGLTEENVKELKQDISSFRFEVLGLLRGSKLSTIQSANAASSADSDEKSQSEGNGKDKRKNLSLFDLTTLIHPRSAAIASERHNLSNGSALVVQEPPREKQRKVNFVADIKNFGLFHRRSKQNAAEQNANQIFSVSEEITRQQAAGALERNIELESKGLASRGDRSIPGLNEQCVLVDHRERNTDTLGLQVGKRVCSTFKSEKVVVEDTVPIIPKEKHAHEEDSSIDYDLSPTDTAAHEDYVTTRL

[9] = biological target: Voltage-dependent T-type calcium channel subunit alpha-1H (Homo sapiens, UniProt O95180); type: functional;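 also: channel activity triggered by adding a high calcium stimulation buffer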
Sequence of Voltage-dependent T-type calcium channel subunit alpha-1H (O95180 whole entry): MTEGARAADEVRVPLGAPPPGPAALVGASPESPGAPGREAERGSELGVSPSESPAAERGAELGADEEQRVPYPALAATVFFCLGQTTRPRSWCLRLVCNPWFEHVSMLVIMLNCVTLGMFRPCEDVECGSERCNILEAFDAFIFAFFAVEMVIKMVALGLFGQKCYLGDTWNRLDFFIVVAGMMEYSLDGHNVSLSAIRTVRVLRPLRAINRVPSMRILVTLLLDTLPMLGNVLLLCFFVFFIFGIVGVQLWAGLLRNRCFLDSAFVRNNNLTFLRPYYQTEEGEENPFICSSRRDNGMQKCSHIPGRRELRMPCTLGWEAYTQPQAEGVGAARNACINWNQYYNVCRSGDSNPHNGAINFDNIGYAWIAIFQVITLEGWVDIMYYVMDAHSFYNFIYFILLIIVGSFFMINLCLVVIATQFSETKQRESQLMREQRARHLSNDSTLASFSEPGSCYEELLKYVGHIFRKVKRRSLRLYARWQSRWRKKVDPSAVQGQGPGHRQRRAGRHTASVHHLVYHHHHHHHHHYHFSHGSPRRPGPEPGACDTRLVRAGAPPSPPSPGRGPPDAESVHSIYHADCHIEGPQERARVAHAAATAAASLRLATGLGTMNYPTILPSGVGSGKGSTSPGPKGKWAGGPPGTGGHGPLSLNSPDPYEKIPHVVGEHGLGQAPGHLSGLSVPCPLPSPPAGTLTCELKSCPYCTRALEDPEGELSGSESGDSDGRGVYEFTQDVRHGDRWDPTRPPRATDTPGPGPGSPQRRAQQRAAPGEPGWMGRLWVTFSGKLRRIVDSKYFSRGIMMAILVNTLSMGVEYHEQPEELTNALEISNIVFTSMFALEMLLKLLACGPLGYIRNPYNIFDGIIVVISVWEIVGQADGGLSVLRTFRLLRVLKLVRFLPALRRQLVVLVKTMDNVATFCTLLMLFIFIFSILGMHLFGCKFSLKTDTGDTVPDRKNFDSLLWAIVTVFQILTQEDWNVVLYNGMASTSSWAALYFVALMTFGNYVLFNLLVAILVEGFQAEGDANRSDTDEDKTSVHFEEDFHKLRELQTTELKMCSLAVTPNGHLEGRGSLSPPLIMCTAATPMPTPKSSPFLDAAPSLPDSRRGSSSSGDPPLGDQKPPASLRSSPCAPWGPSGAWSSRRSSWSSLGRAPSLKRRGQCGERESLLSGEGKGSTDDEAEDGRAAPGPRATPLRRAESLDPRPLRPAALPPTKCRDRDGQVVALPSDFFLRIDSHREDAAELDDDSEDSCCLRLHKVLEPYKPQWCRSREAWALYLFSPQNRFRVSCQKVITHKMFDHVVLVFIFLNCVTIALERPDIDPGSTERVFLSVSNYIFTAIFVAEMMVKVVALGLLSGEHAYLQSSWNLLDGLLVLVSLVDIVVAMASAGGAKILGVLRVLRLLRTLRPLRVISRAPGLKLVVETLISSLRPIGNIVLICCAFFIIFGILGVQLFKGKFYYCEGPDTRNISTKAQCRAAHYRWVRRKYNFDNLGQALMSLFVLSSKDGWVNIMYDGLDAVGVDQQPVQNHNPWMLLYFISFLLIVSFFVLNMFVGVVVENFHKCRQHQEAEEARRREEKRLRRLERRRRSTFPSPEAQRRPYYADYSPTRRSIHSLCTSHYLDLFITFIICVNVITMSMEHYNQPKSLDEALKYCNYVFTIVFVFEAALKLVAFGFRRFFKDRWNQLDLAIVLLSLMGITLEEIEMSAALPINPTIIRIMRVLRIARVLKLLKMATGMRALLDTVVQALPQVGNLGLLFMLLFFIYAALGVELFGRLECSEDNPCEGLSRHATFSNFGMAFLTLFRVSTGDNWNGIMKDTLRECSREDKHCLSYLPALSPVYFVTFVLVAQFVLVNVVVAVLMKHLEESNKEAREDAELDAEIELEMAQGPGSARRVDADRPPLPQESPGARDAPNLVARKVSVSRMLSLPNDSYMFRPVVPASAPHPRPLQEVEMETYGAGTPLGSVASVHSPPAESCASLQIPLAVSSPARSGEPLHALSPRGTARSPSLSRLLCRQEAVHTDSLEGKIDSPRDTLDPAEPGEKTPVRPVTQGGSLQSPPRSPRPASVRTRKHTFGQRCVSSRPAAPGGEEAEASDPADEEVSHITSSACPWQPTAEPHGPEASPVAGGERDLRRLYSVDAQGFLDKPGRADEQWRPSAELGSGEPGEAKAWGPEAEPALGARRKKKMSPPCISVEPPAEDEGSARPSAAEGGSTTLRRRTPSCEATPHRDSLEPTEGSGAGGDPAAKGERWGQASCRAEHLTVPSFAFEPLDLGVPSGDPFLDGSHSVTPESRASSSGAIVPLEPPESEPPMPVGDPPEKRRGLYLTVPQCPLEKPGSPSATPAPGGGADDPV

[10] = test system: Vero; assay: cells; type: functional, cell-based; details: Chlorocebus sabaeus
[11] = biological target: Alkaline phosphatase, placental type (Homo sapiens, UniProt P05187); assay: PLAP enzyme inhibitors, confirmation, biochemical, luminescence (AID 1512); type: functional
Sequence of Alkaline phosphatase, placental type (P05187 whole entry): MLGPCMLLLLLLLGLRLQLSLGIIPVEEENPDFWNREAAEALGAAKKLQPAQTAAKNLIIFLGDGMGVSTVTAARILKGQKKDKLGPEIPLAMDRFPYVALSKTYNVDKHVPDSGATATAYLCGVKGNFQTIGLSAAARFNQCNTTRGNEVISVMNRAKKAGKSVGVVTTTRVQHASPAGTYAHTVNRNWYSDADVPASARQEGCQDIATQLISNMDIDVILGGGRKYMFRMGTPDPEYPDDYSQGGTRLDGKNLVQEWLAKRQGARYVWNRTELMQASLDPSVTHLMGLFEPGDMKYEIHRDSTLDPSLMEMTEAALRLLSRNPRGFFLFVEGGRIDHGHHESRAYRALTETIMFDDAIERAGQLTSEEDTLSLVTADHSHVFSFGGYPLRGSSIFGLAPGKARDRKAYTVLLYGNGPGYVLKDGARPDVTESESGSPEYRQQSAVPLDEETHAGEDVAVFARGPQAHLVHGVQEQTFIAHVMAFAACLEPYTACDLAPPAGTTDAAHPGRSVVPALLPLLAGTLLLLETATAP

Sequence of Beta-galactosidase (Q8VNN2 whole entry): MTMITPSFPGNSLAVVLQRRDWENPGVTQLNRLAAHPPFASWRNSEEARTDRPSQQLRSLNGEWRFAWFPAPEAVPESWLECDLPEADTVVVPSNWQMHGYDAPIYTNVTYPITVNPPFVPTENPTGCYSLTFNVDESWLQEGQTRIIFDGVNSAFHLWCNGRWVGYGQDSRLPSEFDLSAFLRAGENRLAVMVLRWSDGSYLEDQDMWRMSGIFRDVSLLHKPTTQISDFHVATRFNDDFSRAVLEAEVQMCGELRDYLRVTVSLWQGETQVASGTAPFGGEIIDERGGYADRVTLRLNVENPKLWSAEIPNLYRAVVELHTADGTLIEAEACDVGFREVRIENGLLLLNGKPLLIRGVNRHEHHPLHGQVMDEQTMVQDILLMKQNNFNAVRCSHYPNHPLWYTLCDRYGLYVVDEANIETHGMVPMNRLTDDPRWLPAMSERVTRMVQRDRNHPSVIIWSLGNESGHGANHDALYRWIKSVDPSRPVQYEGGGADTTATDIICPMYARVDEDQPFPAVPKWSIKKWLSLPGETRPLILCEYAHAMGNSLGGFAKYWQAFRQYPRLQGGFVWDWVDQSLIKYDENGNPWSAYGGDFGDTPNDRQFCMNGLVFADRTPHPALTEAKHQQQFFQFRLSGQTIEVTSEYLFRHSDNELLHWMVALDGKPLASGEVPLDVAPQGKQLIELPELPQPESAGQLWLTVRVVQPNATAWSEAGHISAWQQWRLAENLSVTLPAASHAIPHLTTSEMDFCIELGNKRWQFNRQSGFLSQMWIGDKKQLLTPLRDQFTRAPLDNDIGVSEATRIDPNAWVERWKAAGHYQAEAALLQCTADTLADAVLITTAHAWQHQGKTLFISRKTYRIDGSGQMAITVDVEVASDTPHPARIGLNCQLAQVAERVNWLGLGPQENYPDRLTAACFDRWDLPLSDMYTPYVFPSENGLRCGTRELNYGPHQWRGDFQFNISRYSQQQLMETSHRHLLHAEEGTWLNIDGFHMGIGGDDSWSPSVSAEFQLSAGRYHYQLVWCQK

For `Cc1ccc(N=C2C(=O)Nc3c(C)cccc32)cc1`, the EC50 [1] was > 40 µM (inactive) and the IC50 [2] was > 40 µM (not active).

For `COc1cc(NC(=O)CSc2ncnc3scc(-c4ccccc4)c23)c(C(=O)O)cc1OC`, the IC50 [3] was < 1 µM (active) and the IC50 [4] was 40.1 µM (active).

For `CC(C)(C)n1nnnc1C(c1cc2cc3c(cc2nc1O)OCCO3)N1CCSCC1` (stereo not given), the AC50 [5] was 28.6 µM (active).

In the case of `O=C(Cn1cnc2ccccc21)c1ccc(O)c(O)c1`, the IC50 [6] is reported as 14 µM (active).

For `COc1cc(/C(C)=N\NC(N)=S)cc(OC)c1OC`, the IC50 [7] was > 80 µM (inactive).

In the case of `CCOC(=O)C1(c2ccccc2)CCN(CC(=O)Nc2ccc(C)cc2)CC1`, the EC50 [8] is reported as 2.99 µM (active).

For `NS(=O)(=O)c1ccc(NC(=O)CSc2nnc(-c3ccc(O)cc3)o2)cc1`, the AC50 [5] was 127 µM (active).

With `Cc1cccc(-c2nc(C[S+]([O-])CC(=O)NCCCSC3CCCCC3)c(C)o2)c1` (stereo not given) the EC50 [9] was 3.94 µM (active).

With `O=C(NC1CCN(C(=O)NCc2ccccc2)CC1)c1ccco1` the IC50 [4] was 93.2 µM (active).

In the case of `Cc1ccc2c(Cl)cc(Cl)c(O)c2n1` [CHLORQUINALDOL], the IC50 [10] is reported as > 25 µM (active) and the AC50 [5] is reported as 54.3 µM (active).

With `COc1ccc(-c2nnc(SCC(=O)c3ccc(O)c(O)c3)n2-c2ccccc2)cc1` the IC50 [11] was 7.22 µM (active) and the IC50 [6] was > 100 µM (inactive).
